Assay results taken from US20250009780A1, “AGENTS ENCODING CLDN6 AND CD3 BINDING ELEMENTS FOR TREATING CLDN6-POSITIVE CANCERS” (BIONTECH SE, priority 2021, published 2025).
Where two headings read alike, the source gives them in different places.

Assays:
human PBMCs (T cells) [1] = assay: T-cell proliferation assay (CFSE-labeled PBMCs, flow cytometry); format: cell-based; details: presence as well as absence of target cells
Text: CFSE-labeled human PBMCs from three healthy donors were co-cultured with CLDN6-positive PA-1 and OV-90 target cells or with CLDN6-negative but control TAA-positive NUGC-4 as well as target-negative MDA-MB-231 control cells in a 12-well culture plate format. An effector-to-target-cell ratio of 10:1 was applied. In addition, PBMCs without (−) target cells were included separately. […] OKT3 antibody (anti-human CD3; black bars) served as positive control for target-independent CD3-driven T-cell proliferation. After 72 h of incubation, the percentages of proliferating T cells were analyzed by flow cytometry.
HEK-293T-17 producer cells were transfected with BNT142 or a control RiboMab-encoding RNA. Supernatants containing RiboMab02.1 or the control RiboMab (specific for an irrelevant TAA) were used as test items. Two concentrations (100 or 1 ng/mL) of RiboMab-containing supernatant were added to co-cultures of carboxyfluorescein succinimidyl ester (CFSE)-labeled human PBMCs and target-positive or -negative cells. PA-1 or OV-90 served as CLDN6-positive and MDA-MB-231 as target-negative cells. CLDN6-negative NUGC-4 cells (expressing the irrelevant TAA) as well as PBMCs in the absence of any target cells were included as further specificity controls. PBMCs from three healthy donors were compared in this assay. After 72 h of incubation, T cells were analyzed by flow cytometry to determine target-dependent proliferation.

human PBMCs = assay: In vitro human cytokine release (multiplex ELISA on T-cell activation assay supernatants); format: cell-based; details: positive control
Method: Cytokine concentration values for each donor (means of technical triplicates) are shown. Filled symbols represent values with target cells while open symbols represent values without target cells.
Cell culture supernatants obtained from the T-cell activation assay were analyzed to investigate the RiboMab02.1-dependent induction of on- and off-target cytokine release. The levels of human pro-inflammatory cytokines IFN-γ, IL-1β, IL-2, IL-6, IL-10 and TNF-α were measured using a customized multiplex ELISA kit.

human PBMCs (T cells) [2] = assay: T-cell activation assay (CD69/CD25, flow cytometry); format: cell-based; details: with and without target cells (data not shown)
Method: Human PBMCs from three healthy donors (effector cells) were cultured in the presence and absence of CLDN6-positive PA-1 cells (target cells) at a 10:1 effector-to-target-cell ratio. RiboMab02.1-containing mouse serum was serially-diluted (10-fold, 10-point; range: 4.0×10^−6 to 4,000 ng/mL) prior to use in the assay. After 48 h of co-incubation, cells were stained with anti-CD5, anti-CD69 and anti-CD25 antibodies for flow cytometric analysis of T cells. Shown here is the total T-cell activation normalized to samples incubated with mock serum from Luc_RNA-LNP-treated mice. Percentages of activated T cells are shown for each individual donor (left) and for all three donors as mean (right). Filled symbols represent values with and black, open symbols without target cells.
RiboMab02.1-containing as well as mock serum samples were obtained from mice administered either with BNT142 or luciferase encoding RNA-LNP (Luc_RNA-LNP; mock). Human PBMCs from three healthy donors were used as effector cells. Serum samples were serially-diluted (10-fold, 10-point), starting at 4,000 ng/mL, and added to PBMCs cultured alone or together with CLDN6-positive PA-1 target cells at an effector-to-target-cell ratio of 10:1. After 48 h of incubation, T cells were analyzed by flow cytometry for surface expression of the early and late activation markers CD69 and CD25, respectively. […] OKT3 positive control led to >50% T-cell activation with and without target cells (data not shown). Upregulation of CD69 on T cells was higher than that of CD25; CD25-positive cells were almost exclusively CD69 double-positive, pointing to an early activation state (data not shown).

[3] = In vitro metabolic stability, S9 fractions; format: in vitro ADME, mouse, rat, monkey, and human; details: 120 min, all species
Method: (§1) The in vitro metabolic stability of ALC-0366 (aminolipid) was evaluated in mouse, rat, monkey, and human liver microsomes, S9 fractions, and hepatocytes. ALC-0366 was stable over 120 min in liver microsomes (remaining ALC-0366 >89%) and S9 fractions (remaining ALC-0366 >88%) and over 240 min in hepatocytes (remaining ALC-0366 >94%) in all species and test systems.

[4] = In vitro metabolic stability, liver microsomes; format: in vitro ADME, mouse, rat, monkey, and human; details: 120 min, all species
Method: as §1

[5] = In vitro metabolic stability, hepatocytes; format: in vitro ADME, mouse, rat, monkey, and human; details: 240 min, all species
Method: as §1

[6] = test system: 6,239 full-length human plasma membrane proteins and cell surface-tethered human secreted proteins; assay: Cell microarray off-target binding assay, remaining panel; details: fixed HEK293 cells
Text: (§2) The tribody was screened for binding against fixed human HEK293 cells, individually overexpressing 6,239 different full-length human plasma membrane proteins and cell surface-tethered human secreted proteins, including 371 heterodimers.

[7] = test system: human pro-inflammatory cytokines in NSG/PBMC mice; assay: Human cytokine release in serum of NSG/PBMC mice; format: in vivo, mouse; details: 100 μg reference protein; 6-hour time point
Method: An additional non-tumor-bearing (w/o tumor) group administered with 1 μg BNT142 was included. (A) Concentrations of human cytokines (IFN-γ, IL-6, IL-2, IL-10, TNF-α and IL-1β) in mouse serum as determined by multiplex ELISA at the 6- (n=8) and 72-hour (n=4) time points. Data was normalized to saline-administered animals of the respective time points. Horizontal lines indicate medians. Unpaired and paired samples were compared using the Mann-Whitney U test or Wilcoxon signed-rank test, respectively. […] Horizontal lines indicate means.
The human pro-inflammatory cytokines IFN-γ, IL-1β, IL-2, IL-6, IL-10 and TNF-α were measured in serum samples of OV-90 human xenograft tumor-bearing NSG/PBMC mice obtained after 6 and 72 h of the third BNT142 administration (see above). An additional group of tumor-free NSG/PBMC mice was treated with 1 μg BNT142. […] Data were normalized to the values obtained with the saline control group at the respective time points.

CLDN9 = molecular target: T1, CLDN9 (Homo sapiens, UniProt O95484); assay: Cell microarray off-target binding assay, CLDN9; design: individually overexpressing 6,239 different full-length human plasma membrane proteins; expressed in transfected cells; host or cells: fixed human HEK293 cells; details: fixed HEK293 cells overexpressing target
T1 sequence (O95484 1-217): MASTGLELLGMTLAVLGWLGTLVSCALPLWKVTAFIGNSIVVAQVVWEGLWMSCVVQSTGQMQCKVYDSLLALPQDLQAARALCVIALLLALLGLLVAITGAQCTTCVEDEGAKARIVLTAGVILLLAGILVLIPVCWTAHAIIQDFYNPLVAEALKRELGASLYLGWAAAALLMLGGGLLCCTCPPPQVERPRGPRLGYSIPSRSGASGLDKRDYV
Text: as §2

CLDN6 = molecular target: T2, CLDN6 (Homo sapiens, UniProt P56747); assay: Cell microarray off-target binding assay, CLDN6; details: fixed HEK293 cells overexpressing target
T2 construct: expressed in transfected cells
T2 sequence (P56747 1-220): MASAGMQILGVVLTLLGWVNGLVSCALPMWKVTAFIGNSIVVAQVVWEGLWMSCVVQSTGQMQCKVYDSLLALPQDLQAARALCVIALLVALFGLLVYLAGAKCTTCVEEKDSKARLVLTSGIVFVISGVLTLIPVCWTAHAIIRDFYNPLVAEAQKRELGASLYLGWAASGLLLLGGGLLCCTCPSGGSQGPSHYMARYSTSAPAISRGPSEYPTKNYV
Text: as §2

[8] = test system: CLDN6-positive human ovarian carcinoma (OV-90) xenograft; assay: OV-90 xenograft model in PBMC-humanized NSG mice; format: in vivo, mouse
Method: NSG mice bearing advanced SC tumor xenografts of OV-90 cells (mean tumor volume at treatment start=100 mm^3) were engrafted with human PBMCs as effector cells by IP injection. Tumor volume was measured twice per week with a digital caliper. […] (A) Treatment schedule. (B) Tumor volume of individual mice at designated time points. (C) Overview of the median tumor volume per group, each comprising 13 to 14 mice at the start of the study and a minimum of five mice at the last data points. The vertical dotted lines represent the time points of IV administration of test/control items. Four mice (five mice from the 0.1 μg BNT142 group) from all groups were euthanized on Day 38 to obtain samples for ex vivo assays. (D) Number of CD3-positive cells per mm^2 of xenograft tissue as determined by immunohistochemical (IHC) staining using an anti-human CD3 antibody. […] Horizontal lines represent the mean (n=4 to 5). (E) Percentage of CLDN6-positive cells in tumor xenografts of mice from the respective test and control groups as determined by IHC staining using an anti-human CLDN6 antibody. Tumor xenografts were dissected at different time points over the course of the study. Horizontal lines represent the mean (n=8 to 10). […] Reddish-brown staining (dark in the black and white figure) indicates a positive IHC signal while the bluish-purple areas indicate an absence of positive staining (negative IHC signal).
To determine the anti-tumor efficacy of BNT142 in vivo, a CLDN6-positive human ovarian carcinoma (OV-90) xenograft mouse model was used. Briefly, immunodeficient male and female NOD.Cg-Prkd^scid IL2rg^tm1Wjl/SzJ (NSG) mice were subcutaneously (SC) inoculated with human OV-90 ovarian carcinoma cells. Mice with established tumors (mean size ≥30 mm^3) were engrafted intraperitoneally (IP) with human PBMCs from a healthy donor (resulting mouse model annotated as NSG/PBMC). Seven days later, a treatment regimen comprising five weekly single IV bolus injections of BNT142 or control items was initiated. BNT142 was administered at doses of 0.1 or 1 μg (˜0.004 and 0.04 mg/kg) per mouse. […]

[9] = Rat IV PK study of lipid excipient ALC-0159; format: in vivo, Wistar Han rats; details: for half-life: Wistar Han, rat, plasma, iv, 1.96 mg ALC-0159/kg, 1.96 mg ALC-0159/kg single IV
Method: BNT142 contains the PEG lipid excipient ALC-0159 in the nanoparticle. […] ALC-0159 was then cleared from plasma with a terminal elimination ty, of 72.7 h. The estimated percent of lipid dose distributed to the liver was ˜20%.

[10] = Metabolism of ALC-0159 in vitro and ex vivo; format: in vitro ADME, mouse, rat, monkey and human; details: yields N,N-ditetradecylamine; across species
Text: The metabolism of ALC-0159, was examined in vitro using blood, liver S9 fractions and hepatocytes, all from mouse, rat, monkey and human and ex vivo in the rat plasma, urine, feces, and liver from the PK study. […] This hydrolytic metabolism was observed across the species evaluated.

## OKT3: human CD3-specific antibody used as positive control for T-cell activation [reference compound]
Human PBMCs (T cells) [1]
  T-cell activation (positive control in proliferation assay): strong activation
Human PBMCs
  cytokine release: induced cytokine release in the presence as well as absence of target cells
Human PBMCs (T cells) [2]
  T-cell activation: > 50%

## CCCCCCC(CCCC)C(=O)OCCCCCCCCCN(CCCO)CCCCCCCCCOC(=O)C(CCCC)CCCCCC (centres unmarked) [ALC-0366, ((3-Hydroxypropyl)azanediyl)bis(nonane-9,1-diyl) bis(2-butyloctanoate)]
[3]
  remaining ALC-0366: > 88%
[4]
  remaining ALC-0366: > 89%
[5]
  remaining ALC-0366: > 94%

## reference protein: recombinant purified CD3×(CLDN6)2 tribody reference protein, sequence-identical to RiboMab02.1
[6]
  other binding: No other binding was observed
[7]
  human cytokine elevation in serum: transient but significant elevation of all six cytokines
CLDN9
  interaction with CLDN9: weak off-target interaction
CLDN6
  interaction with CLDN6: specific interaction
[8]; 100 μg reference protein IV once weekly x5
  start of tumor volume shrinkage: after the third treatment
[8]; 100 μg reference protein, 72 h after third injection
  TIL per mm^2 tumor tissue (average): 1,542 per mm^2
[8]; treated groups in contrast to negative control groups
  tumor reduction: significant tumor reduction

## CCCCCCCCCCCCCCN(CCCCCCCCCCCCCC)C(=O)COCCOCCOCCOCCOCCOCCOCCOCCOCCOCCOCCOCCOCCOCCOCCOCCOCCOCCOCCOCCOCCOCCOCCOCCOCCOCCOCCOCCOCCOCCOCCOCCOCCOCCOCCOCCOCCOCCOCCOCCOCCOCCOCCOCCOCCOC [ALC-0159, 2-[(Polyethylene glycol)-2000]-N,N-ditetradecylacetamide]
[9]; IV administration of RNA-LNP
  excretion in urine: no detectable excretion
  percentage of dose excreted unchanged in feces: ~50%
[9]; read-out: initial plasma half-life (converted)
  half-life: 1.72 h
[9]; read-out: terminal elimination half-life in plasma (converted)
  half-life: 72.7 h
[9]; during 2 wk study
  drop of plasma concentration: approximately 8,000 fold
[9]; single IV
  estimated percent of lipid dose distributed to the liver: ~20%
[10]
  metabolism: metabolized relatively slowly by amide bond hydrolysis
